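Five concentrations, 48 hours, 96-well plates. GI50: concentration for 50% inhibition of growth. TGI marks complete inhibition of growth.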
Legend:
Assay in all cases: growth of human tumour cells (NCI), 48 h
786-0 renal = test system: 786-0 renal
A498 renal = test system: A498 renal
A549 NSCLC = test system: A549 NSCLC
ACHN renal = test system: ACHN renal
BT-549 breast = test system: BT-549 breast
CAKI-1 renal = test system: CAKI-1 renal
CCRF-CEM leukemia = test system: CCRF-CEM leukemia
COLO 205 colon = test system: COLO 205 colon
DU-145 prostate = test system: DU-145 prostate
HCC-2998 colon = test system: HCC-2998 colon
HCT-116 colon = test system: HCT-116 colon
HCT-15 colon = test system: HCT-15 colon
HL-60(TB) leukemia = test system: HL-60(TB) leukemia
HOP-62 NSCLC = test system: HOP-62 NSCLC
HOP-92 NSCLC = test system: HOP-92 NSCLC
HS 578T breast = test system: HS 578T breast
HT29 colon = test system: HT29 colon
IGROV1 ovarian = test system: IGROV1 ovarian
K-562 leukemia = test system: K-562 leukemia
KM12 colon = test system: KM12 colon
LOX IMVI melanoma = test system: LOX IMVI melanoma
M14 melanoma = test system: M14 melanoma
MALME-3M melanoma = test system: MALME-3M melanoma
MCF7 breast = test system: MCF7 breast
MDA-MB-231 breast = test system: MDA-MB-231 breast
MDA-MB-435 = test system: MDA-MB-435
MOLT-4 leukemia = test system: MOLT-4 leukemia
NCI-H226 lung = test system: NCI-H226 lung
NCI-H23 lung = test system: NCI-H23 lung
NCI-H460 lung = test system: NCI-H460 lung
NCI-H522 lung = test system: NCI-H522 lung
NCI/ADR-RES ovarian = test system: NCI/ADR-RES ovarian
OVCAR-3 ovarian = test system: OVCAR-3 ovarian
OVCAR-4 ovarian = test system: OVCAR-4 ovarian
OVCAR-5 ovarian = test system: OVCAR-5 ovarian
OVCAR-8 ovarian = test system: OVCAR-8 ovarian
PC-3 prostate = test system: PC-3 prostate
RPMI-8226 leukemia = test system: RPMI-8226 leukemia
RXF 393 renal = test system: RXF 393 renal
SF-268 CNS = test system: SF-268 CNS
SF-295 CNS = test system: SF-295 CNS
SF-539 CNS = test system: SF-539 CNS
SK-MEL-2 melanoma = test system: SK-MEL-2 melanoma
SK-MEL-28 melanoma = test system: SK-MEL-28 melanoma
SK-MEL-5 melanoma = test system: SK-MEL-5 melanoma
SK-OV-3 ovarian = test system: SK-OV-3 ovarian
SN12C renal = test system: SN12C renal
SNB-19 CNS = test system: SNB-19 CNS
SNB-75 CNS = test system: SNB-75 CNS
SR leukemia = test system: SR leukemia
SW-620 colon = test system: SW-620 colon
T-47D breast = test system: T-47D breast
TK-10 renal = test system: TK-10 renal
U251 CNS = test system: U251 CNS
UACC-257 melanoma = test system: UACC-257 melanoma
UACC-62 melanoma = test system: UACC-62 melanoma
UO-31 renal = test system: UO-31 renal

With `CCN(Cc1cccc(F)c1F)c1ccc(CO)c(Cl)c1` the GI50 (786-0 renal) was 13.6 µM, the TGI (786-0 renal) was 32.2 µM and the GI50 (A498 renal) was 0.0217 µM. For the same compound, the TGI (A498 renal) was 0.102 µM, the GI50 (A549 NSCLC) was 1.54 µM and the TGI (A549 NSCLC) was 24.2 µM. For the same compound, the GI50 (ACHN renal) was 17.8 µM, the TGI (ACHN renal) was > 51.7 µM and the GI50 (BT-549 breast) was 18.5 µM. It also gave a TGI (BT-549 breast) of 35.9 µM, a GI50 (CAKI-1 renal) of 0.4 µM and a TGI (CAKI-1 renal) of 5.59 µM. It also gave a GI50 (CCRF-CEM leukemia) of 20.1 µM, a TGI (CCRF-CEM leukemia) of 69.1 µM and a GI50 (COLO 205 colon) of 2.47 µM. For the same compound, the TGI (COLO 205 colon) was 7.59 µM, the GI50 (DU-145 prostate) was 18.8 µM and the TGI (DU-145 prostate) was 55.6 µM. The GI50 (HCC-2998 colon) was 5.09 µM, the TGI (HCC-2998 colon) was 24.6 µM and the GI50 (HCT-116 colon) was 0.067 µM. For the same compound, the TGI (HCT-116 colon) was 11.2 µM, the GI50 (HCT-15 colon) was 12.4 µM and the TGI (HCT-15 colon) was 36.2 µM. The GI50 (HL-60(TB) leukemia) was 7.25 µM, the TGI (HL-60(TB) leukemia) was 41.2 µM and the GI50 (HOP-62 NSCLC) was 1.82 µM. It also gave a TGI (HOP-62 NSCLC) of 24.6 µM, a GI50 (HOP-92 NSCLC) of 0.19 µM and a TGI (HOP-92 NSCLC) of 8.23 µM. The GI50 (HS 578T breast) was 17.9 µM, the TGI (HS 578T breast) was 48.7 µM and the GI50 (HT29 colon) was 3.83 µM. It also gave a TGI (HT29 colon) of 19 µM, a GI50 (IGROV1 ovarian) of 0.0668 µM and a TGI (IGROV1 ovarian) of 0.335 µM. It also gave a GI50 (K-562 leukemia) of 0.683 µM, a TGI (K-562 leukemia) of 29.3 µM and a GI50 (KM12 colon) of 15.8 µM. It also gave a TGI (KM12 colon) of 31.6 µM, a GI50 (LOX IMVI melanoma) of 15.8 µM and a TGI (LOX IMVI melanoma) of 30.7 µM. It also gave a GI50 (M14 melanoma) of 17.9 µM, a TGI (M14 melanoma) of 35.1 µM and a GI50 (MALME-3M melanoma) of 16 µM. It also gave a TGI (MALME-3M melanoma) of 34.2 µM, a GI50 (MCF7 breast) of 0.157 µM and a TGI (MCF7 breast) of 12.6 µM. It also gave a GI50 (MDA-MB-231 breast) of 16.1 µM, a TGI (MDA-MB-231 breast) of 36.1 µM and a GI50 (MDA-MB-435) of 17.7 µM. It also gave a TGI (MDA-MB-435) of 37.1 µM, a GI50 (MOLT-4 leukemia) of 19.8 µM and a TGI (MOLT-4 leukemia) of 49.9 µM. It also gave a GI50 (NCI-H226 lung) of 0.0318 µM, a TGI (NCI-H226 lung) of 0.141 µM and a GI50 (NCI-H23 lung) of 13.6 µM. It also gave a TGI (NCI-H23 lung) of 51.6 µM, a GI50 (NCI-H460 lung) of 0.176 µM and a TGI (NCI-H460 lung) of 11 µM. The GI50 (NCI-H522 lung) was 14.1 µM, the TGI (NCI-H522 lung) was 31.2 µM and the GI50 (NCI/ADR-RES ovarian) was 17.5 µM. For the same compound, the TGI (NCI/ADR-RES ovarian) was 52.2 µM, the GI50 (OVCAR-3 ovarian) was 0.304 µM and the TGI (OVCAR-3 ovarian) was 1.28 µM. For the same compound, the GI50 (OVCAR-4 ovarian) was 0.127 µM, the TGI (OVCAR-4 ovarian) was 1.24 µM and the GI50 (OVCAR-5 ovarian) was 0.058 µM. The TGI (OVCAR-5 ovarian) was 0.228 µM, the GI50 (OVCAR-8 ovarian) was 14.2 µM and the TGI (OVCAR-8 ovarian) was 48.3 µM. The GI50 (PC-3 prostate) was 15.4 µM, the TGI (PC-3 prostate) was 37.2 µM and the GI50 (RPMI-8226 leukemia) was 2.32 µM. The TGI (RPMI-8226 leukemia) was 39.7 µM, the GI50 (RXF 393 renal) was 1.89 µM and the TGI (RXF 393 renal) was 14.9 µM. For the same compound, the GI50 (SF-268 CNS) was 19.3 µM, the TGI (SF-268 CNS) was 42.7 µM and the GI50 (SF-295 CNS) was 0.284 µM. It also gave a TGI (SF-295 CNS) of 25 µM, a GI50 (SF-539 CNS) of 15.5 µM and a TGI (SF-539 CNS) of 30.2 µM. It also gave a GI50 (SK-MEL-2 melanoma) of 4.68 µM, a TGI (SK-MEL-2 melanoma) of 22.6 µM and a GI50 (SK-MEL-28 melanoma) of 14 µM. For the same compound, the TGI (SK-MEL-28 melanoma) was 30.1 µM, the GI50 (SK-MEL-5 melanoma) was 11.2 µM and the TGI (SK-MEL-5 melanoma) was 23.4 µM. The GI50 (SK-OV-3 ovarian) was 8.3 µM, the TGI (SK-OV-3 ovarian) was 27.4 µM and the GI50 (SN12C renal) was 13.4 µM. The TGI (SN12C renal) was 30.2 µM, the GI50 (SNB-19 CNS) was 17 µM and the TGI (SNB-19 CNS) was > 58.6 µM. The GI50 (SNB-75 CNS) was 12.4 µM, the TGI (SNB-75 CNS) was 40.5 µM and the GI50 (SR leukemia) was 18.8 µM. For the same compound, the TGI (SR leukemia) was 43.7 µM, the GI50 (SW-620 colon) was 0.554 µM and the TGI (SW-620 colon) was 18.1 µM. It also gave a GI50 (T-47D breast) of 0.07 µM, a TGI (T-47D breast) of 0.414 µM and a GI50 (TK-10 renal) of 0.0385 µM. The TGI (TK-10 renal) was 0.23 µM, the GI50 (U251 CNS) was 0.63 µM and the TGI (U251 CNS) was 22.2 µM. For the same compound, the GI50 (UACC-257 melanoma) was 0.0896 µM, the TGI (UACC-257 melanoma) was 0.326 µM and the GI50 (UACC-62 melanoma) was 0.0842 µM. For the same compound, the TGI (UACC-62 melanoma) was 0.519 µM, the GI50 (UO-31 renal) was 2.35 µM and the TGI (UO-31 renal) was 32.1 µM.

Source: PubChem BioAssay (NCI)
